Experimental data as given in ChEMBL document CHEMBL1155915, “Anticonvulsant activity of some xanthone derivatives” (Bioorg Med Chem, 2008).
Calls of active or inactive are those of the source. No cut-off for these calls is given here.

Key:
Mus musculus [1] = test: Neurotoxicity in mouse at 30 mg/kg, ip after 4 hrs by rotarod test; assay type: toxicity, organism-based; parameters: dose 30 mg/kg, route intraperitoneal; conditions: in vivo
Mus musculus [2] = test: Neurotoxicity in mouse at 100 mg/kg, ip after 0.25 hrs by rotarod test; assay type: toxicity, organism-based; parameters: dose 100 mg/kg, route intraperitoneal; conditions: in vivo
Mus musculus [3] = test: Neurotoxicity in mouse at 100 mg/kg, ip after 4 hrs by rotarod test; assay type: toxicity, organism-based; parameters: dose 100 mg/kg, route intraperitoneal; conditions: in vivo
Mus musculus [4] = test: Neurotoxicity in mouse at 300 mg/kg, ip after 4 hrs by rotarod test; assay type: toxicity, organism-based; parameters: dose 300 mg/kg, route intraperitoneal; conditions: in vivo
Mus musculus [5] = test: Anticonvulsant activity against maximal electroshock-induced seizures in mouse at 30 mg/kg, ip after 0.5 hrs; assay type: functional, organism-based; parameters: dose 30 mg/kg
Mus musculus [6] = test: Anticonvulsant activity against maximal electroshock-induced seizures in mouse at 30 mg/kg, ip after 4 hrs; assay type: functional, organism-based; parameters: dose 30 mg/kg
Mus musculus [7] = test: Anticonvulsant activity against maximal electroshock-induced seizures in mouse at 100 mg/kg, ip after 0.5 hrs; assay type: functional, organism-based; parameters: dose 100 mg/kg
Mus musculus [8] = test: Anticonvulsant activity against maximal electroshock-induced seizures in mouse at 100 mg/kg, ip after 1 hr; assay type: functional, organism-based; parameters: dose 100 mg/kg
Mus musculus [9] = test: Anticonvulsant activity against maximal electroshock-induced seizures in mouse at 300 mg/kg, ip after 0.5 hrs; assay type: functional, organism-based; parameters: dose 300 mg/kg
Mus musculus [10] = test: Anticonvulsant activity against maximal electroshock-induced seizures in mouse at 300 mg/kg, ip after 4 hrs; assay type: functional, organism-based; parameters: dose 300 mg/kg
Mus musculus [11] = test: Anticonvulsant activity against scMet-induced seizures in mouse at 100 mg/kg, ip after 4 hrs; assay type: functional, organism-based; parameters: dose 100 mg/kg
Mus musculus [12] = test: Anticonvulsant activity against scMet-induced seizures in mouse at 30 mg/kg, ip after 0.5 hrs; assay type: functional, organism-based; parameters: dose 30 mg/kg
Mus musculus [13] = test: Anticonvulsant activity against scMet-induced seizures in mouse at 30 mg/kg, ip after 4 hrs; assay type: functional, organism-based; parameters: dose 30 mg/kg
Mus musculus [14] = test: Anticonvulsant activity against scMet-induced seizures in mouse at 100 mg/kg, ip after 0.5 hrs; assay type: functional, organism-based; parameters: dose 100 mg/kg
Mus musculus [15] = test: Anticonvulsant activity against scMet-induced seizures in mouse at 300 mg/kg, ip after 0.5 hrs; assay type: functional, organism-based; parameters: dose 300 mg/kg
Mus musculus [16] = test: Anticonvulsant activity against scMet-induced seizures in mouse at 300 mg/kg, ip after 4 hrs; assay type: functional, organism-based; parameters: dose 300 mg/kg
Mus musculus [17] = test: Neurotoxicity in mouse at 10 mg/kg, ip after 0.5 hrs by rotarod test; assay type: toxicity, organism-based; parameters: dose 10 mg/kg, route intraperitoneal; conditions: in vivo
Mus musculus [18] = test: Neurotoxicity in mouse at 10 mg/kg, ip after 4 hrs by rotarod test; assay type: toxicity, organism-based; parameters: dose 10 mg/kg, route intraperitoneal; conditions: in vivo
Mus musculus [19] = test: Neurotoxicity in mouse at 30 mg/kg, ip after 0.5 hrs by rotarod test; assay type: toxicity, organism-based; parameters: dose 30 mg/kg, route intraperitoneal; conditions: in vivo
Mus musculus [20] = test: Neurotoxicity in mouse at 300 mg/kg, ip after 0.5 hrs by rotarod test; assay type: toxicity, organism-based; parameters: dose 300 mg/kg, route intraperitoneal; conditions: in vivo
Rattus norvegicus [21] = test: Anticonvulsant activity against maximal electroshock-induced seizures in rat at 30 mg/kg, po after 0.5 hrs; assay type: functional, organism-based; parameters: dose 30 mg/kg
Rattus norvegicus [22] = test: Anticonvulsant activity against maximal electroshock-induced seizures in rat at 30 mg/kg, po after 1 hr; assay type: functional, organism-based; parameters: dose 30 mg/kg
Rattus norvegicus [23] = test: Anticonvulsant activity against maximal electroshock-induced seizures in rat at 30 mg/kg, po after 2 hrs; assay type: functional, organism-based; parameters: dose 30 mg/kg
Rattus norvegicus [24] = test: Anticonvulsant activity against maximal electroshock-induced seizures in rat at 30 mg/kg, po after 4 hrs; assay type: functional, organism-based; parameters: dose 30 mg/kg
Rattus norvegicus [25] = test: Neurotoxicity in rat at 30 mg/kg, po after 0.25 hrs by rotarod test; assay type: toxicity, organism-based; parameters: dose 30 mg/kg, route oral; conditions: in vivo
Rattus norvegicus [26] = test: Neurotoxicity in rat at 30 mg/kg, po after 0.5 hrs by rotarod test; assay type: toxicity, organism-based; parameters: dose 30 mg/kg, route oral; conditions: in vivo
Rattus norvegicus [27] = test: Neurotoxicity in rat at 30 mg/kg, po after 1 hr by rotarod test; assay type: toxicity, organism-based; parameters: dose 30 mg/kg, route oral; conditions: in vivo
Rattus norvegicus [28] = test: Neurotoxicity in rat at 30 mg/kg, po after 2 hrs by rotarod test; assay type: toxicity, organism-based; parameters: dose 30 mg/kg, route oral; conditions: in vivo
Rattus norvegicus [29] = test: Neurotoxicity in rat at 30 mg/kg, po after 4 hrs by rotarod test; assay type: toxicity, organism-based; parameters: dose 30 mg/kg, route oral; conditions: in vivo
Mus musculus [30] = test: Neurotoxicity in mouse at 3 mg/kg, ip after 0.5 hrs by rotarod test; assay type: toxicity, organism-based; parameters: dose 3 mg/kg, route intraperitoneal; conditions: in vivo
Mus musculus [31] = test: Anticonvulsant activity against maximal electroshock-induced seizures in mouse at 3 mg/kg, ip after 0.5 hrs; assay type: functional, organism-based; parameters: dose 3 mg/kg
Mus musculus [32] = test: Anticonvulsant activity against maximal electroshock-induced seizures in mouse at 10 mg/kg, ip after 0.5 hrs; assay type: functional, organism-based; parameters: dose 10 mg/kg
Mus musculus [33] = test: Anticonvulsant activity against maximal electroshock-induced seizures in mouse at 10 mg/kg, ip after 4 hrs; assay type: functional, organism-based; parameters: dose 10 mg/kg
Mus musculus [34] = test: Anticonvulsant activity against scMet-induced seizures in mouse at 10 mg/kg, ip after 0.5 hrs; assay type: functional, organism-based; parameters: dose 10 mg/kg
Mus musculus [35] = test: Anticonvulsant activity against scMet-induced seizures in mouse at 10 mg/kg, ip after 4 hrs; assay type: functional, organism-based; parameters: dose 10 mg/kg

**Q.** For `C[C@@H](CCl)NCc1ccc2oc3cc(Cl)ccc3c(=O)c2c1.Cl`, which Neurotoxicity (Mus musculus [1]) is on record?
**A.** The Neurotoxicity was “Not Active”.

**Q.** What about the Neurotoxicity (Mus musculus [2]) of the same molecule?
**A.** The Neurotoxicity was “Not Active”.

**Q.** And the Neurotoxicity (Mus musculus [3])?
**A.** Its Neurotoxicity is “Not Active”.

**Q.** What about the Neurotoxicity (Mus musculus [4]) of the same molecule?
**A.** Its Neurotoxicity is “Not Active”.

**Q.** What about the Activity (Mus musculus [5]) of the same molecule?
**A.** The Activity was “inactive”.

**Q.** And the Activity (Mus musculus [6])?
**A.** Its Activity is “inactive”.

**Q.** And the Activity (Mus musculus [7])?
**A.** The Activity was “inactive”.

**Q.** What about the Activity (Mus musculus [8]) of the same molecule?
**A.** Its Activity is “inactive”.

**Q.** And the Activity (Mus musculus [9])?
**A.** Its Activity is “Active”.

**Q.** And the Activity (Mus musculus [10])?
**A.** The Activity was “Active”.

**Q.** What about the Activity (Mus musculus [11]) of the same molecule?
**A.** Its Activity is “inactive”.

**Q.** And the Activity (Mus musculus [12])?
**A.** The Activity was “inactive”.

**Q.** And the Activity (Mus musculus [13])?
**A.** The Activity was “inactive”.

**Q.** What about the Activity (Mus musculus [14]) of the same molecule?
**A.** The Activity was “inactive”.

**Q.** And the Activity (Mus musculus [15])?
**A.** Its Activity is “inactive”.

**Q.** What about the Activity (Mus musculus [16]) of the same molecule?
**A.** Its Activity is “inactive”.

**Q.** How did the Neurotoxicity (Mus musculus [17]) turn out when `CCN(CCO)Cc1ccc2oc3cc(Cl)ccc3c(=O)c2c1` was run?
**A.** The Neurotoxicity was “Not Active”.

**Q.** And the Neurotoxicity (Mus musculus [18])?
**A.** Its Neurotoxicity is “Not Active”.

**Q.** And the Neurotoxicity (Mus musculus [19])?
**A.** Its Neurotoxicity is “Not Active”.

**Q.** What about the Neurotoxicity (Mus musculus [1]) of the same molecule?
**A.** Its Neurotoxicity is “Not Active”.

**Q.** What about the Neurotoxicity (Mus musculus [3]) of the same molecule?
**A.** Its Neurotoxicity is “Neurotoxic”.

**Q.** What about the Neurotoxicity (Mus musculus [20]) of the same molecule?
**A.** The Neurotoxicity was “Neurotoxic”.

**Q.** And the Activity (Rattus norvegicus [21])?
**A.** The Activity was “inactive”.

**Q.** And the Activity (Rattus norvegicus [22])?
**A.** The Activity was “inactive”.

**Q.** What about the Activity (Rattus norvegicus [23]) of the same molecule?
**A.** The Activity was “inactive”.

**Q.** What about the Activity (Rattus norvegicus [24]) of the same molecule?
**A.** Its Activity is “inactive”.

**Q.** And the Neurotoxicity (Rattus norvegicus [25])?
**A.** The Neurotoxicity was “Not Active”.

**Q.** What about the Neurotoxicity (Rattus norvegicus [26]) of the same molecule?
**A.** Its Neurotoxicity is “Not Active”.

**Q.** What about the Neurotoxicity (Rattus norvegicus [27]) of the same molecule?
**A.** The Neurotoxicity was “Not Active”.

**Q.** What about the Neurotoxicity (Rattus norvegicus [28]) of the same molecule?
**A.** Its Neurotoxicity is “Not Active”.

**Q.** What about the Neurotoxicity (Rattus norvegicus [29]) of the same molecule?
**A.** Its Neurotoxicity is “Not Active”.

**Q.** And the Neurotoxicity (Mus musculus [30])?
**A.** Its Neurotoxicity is “Not Active”.

**Q.** What about the Activity (Mus musculus [31]) of the same molecule?
**A.** The Activity was “inactive”.

**Q.** What about the Activity (Mus musculus [32]) of the same molecule?
**A.** Its Activity is “Active”.

**Q.** And the Activity (Mus musculus [33])?
**A.** Its Activity is “inactive”.

**Q.** And the Activity (Mus musculus [5])?
**A.** Its Activity is “inactive”.

**Q.** What about the Activity (Mus musculus [6]) of the same molecule?
**A.** The Activity was “inactive”.

**Q.** What about the Activity (Mus musculus [7]) of the same molecule?
**A.** The Activity was “Active”.

**Q.** What about the Activity (Mus musculus [34]) of the same molecule?
**A.** The Activity was “inactive”.

**Q.** What about the Activity (Mus musculus [11]) of the same molecule?
**A.** Its Activity is “inactive”.

**Q.** And the Activity (Mus musculus [35])?
**A.** Its Activity is “inactive”.

**Q.** And the Activity (Mus musculus [12])?
**A.** Its Activity is “inactive”.

**Q.** What about the Activity (Mus musculus [13]) of the same molecule?
**A.** Its Activity is “inactive”.

**Q.** What about the Activity (Mus musculus [14]) of the same molecule?
**A.** The Activity was “inactive”.
